Experimental data published in US4208398A, “Technetium-labeled complexes, production and use thereof” (priority 1975, dated 1980).

Legend:
[1] = biological distribution of the 99m-Tc complex in mice as a function of time; type: in vivo, white female Swiss Webster mice; settings: for Percentage of total 99m-Tc in mice, Carcass / Percentage of total 99m-Tc in mice, Gut / Percentage of total 99m-Tc in mice, Kidneys / Percentage of total 99m-Tc in mice, Liver / Percentage of total 99m-Tc in mice, Lungs / Percentage of total 99m-Tc in mice, Pancreas / Percentage of total 99m-Tc in mice, Spleen / Percentage of total 99m-Tc in mice, Stomach / Percentage of total 99m-Tc in mice, Spleen & Pancreas / Percentage of total 99m-Tc in mice, Urine: i.v. tail vein
Protocol: The mice were injected intravenously via the tail vein, sacrificed after appropriate time periods, then dissected. The isolated organs were assayed for radioactivity using a Packard series 410 A Auto Gamma Spectrometer.
Each data point represents an average value from three mice taken in three separate distribution studies.
The mice were tested and assayed for radioactivity as described in Example 1.

[2] = water/octanol partition coefficient Ln(aw/ao) of the technetium complex; type: physicochemical; settings: for Partition Coefficient = Ln(aw/ao): 27000 µM
Protocol: This ratio of distribution is quite easily followed by determining the activity of the respective phases of a two-phase system, in which the complex is added as a water solution to octanol in equal parts. […] (wherein aw is the radioactivity distributed in the aqueous phase and ao is the radioactivity distributed in the organic phase, at a pH in the range between pH 4 and pH 9), after thorough agitation to admix the phases followed by standing to accomplish complete separation.
The blood is on the mildly alkaline side at pH=7.4, while the urine, etc., is about pH 5 to pH 8.

[3] = kidney imaging in dogs with a gamma radiation detecting camera; type: in vivo; settings: one-half hour after injection
Protocol: Next, 9 ml. of saline were added to the glass vial (held under N2 atmosphere). The pH of the vial contents was raised to pH 7.4, using 1 molar NaOH. The solution was transferred to a pharmaceutical vial, capped and sealed. Using a needle inserted through the rubber seal septum, the vial was evacuated to 5 mm. Hg pressure and purged with nitrogen to 1 atmospheric pressure. The vial contents were ready for injection and kidney imaging.

[4] = in vivo
[5] = mouse kidney distribution of Tc-99m pertechnetate (comparison); type: in vivo; settings: at any time during a 24 hour period
[6] = localization of technetium activity in a mouse after injection of the complex into the blood stream; type: in vivo; settings: one hour after injection into the blood stream
Protocol: One hour after this complex was injected into the blood stream of a mouse, about 24 percent of technetium activity had localized in its kidneys.

99m-Tc-dimercaptosuccinic acid
Percentage of total 99m-Tc in mice, Carcass ([1]; 0 hr): 40.9 Percentage of total 99m-Tc | Percentage of total 99m-Tc in mice, Carcass ([1]; 0.5 hr): 30.4 Percentage of total 99m-Tc | Percentage of total 99m-Tc in mice, Carcass ([1]; 1.0 hr): 26.9 Percentage of total 99m-Tc | Percentage of total 99m-Tc in mice, Carcass ([1]; 2.0 hr): 20.4 Percentage of total 99m-Tc | Percentage of total 99m-Tc in mice, Carcass ([1]; 4.0 hr): 21.3 Percentage of total 99m-Tc | Percentage of total 99m-Tc in mice, Carcass ([1]; 24.0 hr): 8.0 Percentage of total 99m-Tc | Percentage of total 99m-Tc in mice, Gut ([1]; 0 hr): 10.1 Percentage of total 99m-Tc | Percentage of total 99m-Tc in mice, Gut ([1]; 0.5 hr): 6.1 Percentage of total 99m-Tc | Percentage of total 99m-Tc in mice, Gut ([1]; 1.0 hr): 7.0 Percentage of total 99m-Tc | Percentage of total 99m-Tc in mice, Gut ([1]; 2.0 hr): 4.3 Percentage of total 99m-Tc | Percentage of total 99m-Tc in mice, Gut ([1]; 4.0 hr): 3.0 Percentage of total 99m-Tc | Percentage of total 99m-Tc in mice, Gut ([1]; 24.0 hr): 1.7 Percentage of total 99m-Tc | Percentage of total 99m-Tc in mice, Kidneys ([1]; 0 hr): 9.4 Percentage of total 99m-Tc | Percentage of total 99m-Tc in mice, Kidneys ([1]; 0.5 hr): 29.3 Percentage of total 99m-Tc | Percentage of total 99m-Tc in mice, Kidneys ([1]; 1.0 hr): 39.5 Percentage of total 99m-Tc | Percentage of total 99m-Tc in mice, Kidneys ([1]; 2.0 hr): 45.6 Percentage of total 99m-Tc | Percentage of total 99m-Tc in mice, Kidneys ([1]; 4.0 hr): 54.8 Percentage of total 99m-Tc | Percentage of total 99m-Tc in mice, Kidneys ([1]; 24.0 hr): 75.5 Percentage of total 99m-Tc | Percentage of total 99m-Tc in mice, Liver ([1]; 0 hr): 28.6 Percentage of total 99m-Tc | Percentage of total 99m-Tc in mice, Liver ([1]; 0.5 hr): 12.8 Percentage of total 99m-Tc | Percentage of total 99m-Tc in mice, Liver ([1]; 1.0 hr): 9.4 Percentage of total 99m-Tc | Percentage of total 99m-Tc in mice, Liver ([1]; 2.0 hr): 6.8 Percentage of total 99m-Tc | Percentage of total 99m-Tc in mice, Liver ([1]; 4.0 hr): 3.8 Percentage of total 99m-Tc | Percentage of total 99m-Tc in mice, Liver ([1]; 24.0 hr): 2.7 Percentage of total 99m-Tc | Percentage of total 99m-Tc in mice, Lungs ([1]; 0 hr): 7.4 Percentage of total 99m-Tc | Percentage of total 99m-Tc in mice, Lungs ([1]; 0.5 hr): 2.3 Percentage of total 99m-Tc | Percentage of total 99m-Tc in mice, Lungs ([1]; 1.0 hr): 1.7 Percentage of total 99m-Tc | Percentage of total 99m-Tc in mice, Lungs ([1]; 2.0 hr): 0.8 Percentage of total 99m-Tc | Percentage of total 99m-Tc in mice, Lungs ([1]; 4.0 hr): 0.7 Percentage of total 99m-Tc | Percentage of total 99m-Tc in mice, Lungs ([1]; 24.0 hr): 0.0 Percentage of total 99m-Tc | Percentage of total 99m-Tc in mice, Pancreas ([1]; 0 hr): 1.4 Percentage of total 99m-Tc | Percentage of total 99m-Tc in mice, Pancreas ([1]; 0.5 hr): 0.7 Percentage of total 99m-Tc | Percentage of total 99m-Tc in mice, Pancreas ([1]; 1.0 hr): 0.4 Percentage of total 99m-Tc | Percentage of total 99m-Tc in mice, Pancreas ([1]; 2.0 hr): 0.3 Percentage of total 99m-Tc | Percentage of total 99m-Tc in mice, Pancreas ([1]; 4.0 hr): 0.2 Percentage of total 99m-Tc | Percentage of total 99m-Tc in mice, Pancreas ([1]; 24.0 hr): 0.2 Percentage of total 99m-Tc | Percentage of total 99m-Tc in mice, Spleen ([1]; 0 hr): 0.3 Percentage of total 99m-Tc | Percentage of total 99m-Tc in mice, Spleen ([1]; 0.5 hr): 0.4 Percentage of total 99m-Tc | Percentage of total 99m-Tc in mice, Spleen ([1]; 1.0 hr): 0.2 Percentage of total 99m-Tc | Percentage of total 99m-Tc in mice, Spleen ([1]; 2.0 hr): 0.3 Percentage of total 99m-Tc | Percentage of total 99m-Tc in mice, Spleen ([1]; 4.0 hr): 0.1 Percentage of total 99m-Tc | Percentage of total 99m-Tc in mice, Spleen ([1]; 24.0 hr): 0.1 Percentage of total 99m-Tc | Percentage of total 99m-Tc in mice, Stomach ([1]; 0 hr): 1.8 Percentage of total 99m-Tc | Percentage of total 99m-Tc in mice, Stomach ([1]; 0.5 hr): 1.1 Percentage of total 99m-Tc | Percentage of total 99m-Tc in mice, Stomach ([1]; 1.0 hr): 1.2 Percentage of total 99m-Tc | Percentage of total 99m-Tc in mice, Stomach ([1]; 2.0 hr): 0.5 Percentage of total 99m-Tc | Percentage of total 99m-Tc in mice, Stomach ([1]; 4.0 hr): 0.4 Percentage of total 99m-Tc | Percentage of total 99m-Tc in mice, Stomach ([1]; 24.0 hr): 0.4 Percentage of total 99m-Tc | accumulation of activity in the animal's kidneys ([1]; mice, immediately after injection to 24 hour): begins to accumulate in the animal's kidneys immediately after injection of the Tc-DMSA complex and continues to concentrate during a 24 hour period | Partition Coefficient = Ln(aw/ao) ([2]; pH 4): 6.0 | Partition Coefficient = Ln(aw/ao) ([2]; pH 5): 6.8 | Partition Coefficient = Ln(aw/ao) ([2]; pH 6): 7.6 | Partition Coefficient = Ln(aw/ao) ([2]; pH 7): 8.5 | Partition Coefficient = Ln(aw/ao) ([2]; pH 8): 8.2 | Partition Coefficient = Ln(aw/ao) ([2]; pH 9): 8.1 | kidney images [3]: Good kidney images

99m-Tc-thioglucose
clearance from kidney tissue [4]: rapidly cleared from kidney tissue | Percentage of total 99m-Tc in mice, Carcass ([1]; 0 hr): 53.1 Percentage of total 99m-Tc | Percentage of total 99m-Tc in mice, Carcass ([1]; 0.5 hr): 1.5 Percentage of total 99m-Tc | Percentage of total 99m-Tc in mice, Carcass ([1]; 1.0 hr): 1.4 Percentage of total 99m-Tc | Percentage of total 99m-Tc in mice, Gut ([1]; 0 hr): 13.3 Percentage of total 99m-Tc | Percentage of total 99m-Tc in mice, Gut ([1]; 0.5 hr): 5.5 Percentage of total 99m-Tc | Percentage of total 99m-Tc in mice, Gut ([1]; 1.0 hr): 1.1 Percentage of total 99m-Tc | Percentage of total 99m-Tc in mice, Kidneys ([1]; 0 hr): 9.0 Percentage of total 99m-Tc | Percentage of total 99m-Tc in mice, Kidneys ([1]; 0.5 hr): 2.8 Percentage of total 99m-Tc | Percentage of total 99m-Tc in mice, Kidneys ([1]; 1.0 hr): 0.4 Percentage of total 99m-Tc | Percentage of total 99m-Tc in mice, Liver ([1]; 0 hr): 18.9 Percentage of total 99m-Tc | Percentage of total 99m-Tc in mice, Liver ([1]; 0.5 hr): 2.1 Percentage of total 99m-Tc | Percentage of total 99m-Tc in mice, Liver ([1]; 1.0 hr): 3.3 Percentage of total 99m-Tc | Percentage of total 99m-Tc in mice, Lungs ([1]; 0 hr): 2.9 Percentage of total 99m-Tc | Percentage of total 99m-Tc in mice, Lungs ([1]; 0.5 hr): 0.3 Percentage of total 99m-Tc | Percentage of total 99m-Tc in mice, Lungs ([1]; 1.0 hr): 0.08 Percentage of total 99m-Tc | Percentage of total 99m-Tc in mice, Spleen & Pancreas ([1]; 0 hr): 2.1 Percentage of total 99m-Tc | Percentage of total 99m-Tc in mice, Spleen & Pancreas ([1]; 0.5 hr): 0.1 Percentage of total 99m-Tc | Percentage of total 99m-Tc in mice, Spleen & Pancreas ([1]; 1 hr): 0.2 Percentage of total 99m-Tc | Percentage of total 99m-Tc in mice, Stomach ([1]; 0 hr): 0.8 Percentage of total 99m-Tc | Percentage of total 99m-Tc in mice, Stomach ([1]; 0.5 hr): 0.8 Percentage of total 99m-Tc | Percentage of total 99m-Tc in mice, Stomach ([1]; 1.0 hr): 0.06 Percentage of total 99m-Tc | Percentage of total 99m-Tc in mice, Urine ([1]; 0 hr): 0.0 Percentage of total 99m-Tc | Percentage of total 99m-Tc in mice, Urine ([1]; 0.5 hr): 89.9 Percentage of total 99m-Tc | Percentage of total 99m-Tc in mice, Urine ([1]; 1 hr): 93.5 Percentage of total 99m-Tc | elimination from the kidneys ([1]; mice, 0-1 hr): eliminated from the kidneys of the mice very rapidly

[O]=[99Tc](=[O])(=[O])[O-] [Tc-99m pertechnetate]
maximum kidney concentration of Tc-99m pertechnetate [5]: ≤ 3%

Technetium-3-mercaptopropanoic Acid
Partition Coefficient - Ln(aw/ao) ([2]; pH 4): 2.4 | Partition Coefficient - Ln(aw/ao) ([2]; pH 5): 2.7 | Partition Coefficient - Ln(aw/ao) ([2]; pH 6): 3.1 | Partition Coefficient - Ln(aw/ao) ([2]; pH 7): 3.6 | Partition Coefficient - Ln(aw/ao) ([2]; pH 8): 4.1 | Partition Coefficient - Ln(aw/ao) ([2]; pH 9): 4.7

Technetium-mercaptosuccinic Acid [^99m Tc-mercapto succinic acid]
clearance from kidney tissue [4]: rapidly cleared from kidney tissue

technetium-mercaptoacetic acid
technetium activity found in urine [6]: A large part of the remaining activity | technetium activity localized in kidneys [6]: about 24%
